From paper PMC12454639, “Direct disassembly of α-syn preformed fibrils into α-syn monomers by an all-D-peptide” (NPJ Parkinson's Disease, 2025)
Entries after “also recorded” stand apart in the source; their conditions may differ. Square brackets hold non-standard residues; d marks the D form. Peptide text beside a SMILES is read from it.

Experiments:
[1] = test system: small α-syn PFF; experiment: 100 kDa MWCO size-based fractionation of small α-syn PFF followed by ELISA; type: biochemical, Human; settings: 200 nM PFF, 72 h, 37 °C, n = 3
Method: Fig. 4 SVD-1a disassembles small α-syn PFF seeds into α-syn monomers. Small α-syn PFF seeds were prepared as described previously. […] A and B Time-dependent DLS measurements with 200 nM small α-syn PFF seeds in the absence (A) and presence (B) of 500 nM SVD-1a. 1 ml sample was continuously measured in a sealed quartz cuvette at 37 °C under quiescent conditions every 60 s for 72 h in a SpectroSize 300 instrument (XtalConcepts, GE). Data are shown as a radius plot where the signal amplitude of each particle size is represented by the data point diameter. C One-phase exponential decay fit of “200 nM PFF + 500 nM SVD-1a” shown in (B). […] PFF and monomer samples that were incubated without SVD-1a served as controls. α-Syn was detected with the antibody Syn211. […] In the upper part of the blot, above the marker range, PFFs were detected, using a longer exposure time due to a weaker signal (see Supplementary Fig. 11 for the whole blot image with different exposure times). F Size-based fractionation by centrifugal concentration followed by ELISA quantification. […] After incubation, the samples were fractioned using a 100 kDa MWCO centrifugal concentrator (Merck, Microcon DNA Fast Flow 100 MWCO). α-Syn content of flow through (red) and retentate (blue) was quantified using an α-syn specific ELISA (BioLegend, Human α-Synuclein (Colorimetric), 448607). […]

[2] = test system: α-syn monomer; experiment: SDS–PAGE of fractionated de novo aggregation samples; type: biochemical; settings: 10 µM α-syn, 5, 10, 20 µM SVD-1a, 7 days, silver staining
Method: For small PFF pre incubation with or without SVD-1a (Fig. 4) samples were pre-incubated at 37 °C and 600 rpm for 72 h in PBS pH 7.4 with 0.05% sodium azide using protein low binding reaction tubes in a thermos shaker (Eppendorf GmbH, GE). For de novo aggregation analysis, each replicate was pre-incubated in PBS pH 7.4 with 0.05% sodium azide in a 96-well non-binding half-area plate (Corning, USA) in a FLUOStar platereader (BMG labtech, GE) with 300 rpm continuous orbital shaking in between reads, adding one borosilicate bead per well (d = 3 mm, Hilgenberg, GE, n = 7). 10 µM α-syn monomer was incubated with or without 5, 10 or 20 µM SVD-1a for 7 days. […] The α-syn concentration of the samples was then quantified using an α-syn-specific kit (Human α-Synuclein (Colorimetric), 448607, BioLegend, USA). […]
Supplementary Fig. 20: SDS-PAGE analysis of de novo aggregation samples at incubation endpoint in presence or absence of SVD-1a. 10 µM α-syn monomer was incubated with or without 5, 10 or 20 µM SVD-1a for 7d in a 96-well non-binding half-area plate (Corning, USA) in a FLUOStar platereader (BMG labtech, GE) with 300 rpm continuous orbital shaking in between reads adding one borosilicate bead per well (d = 3 mm, Hilgenberg, GE, n = 7). […] Retentate and flow through samples were analyzed using SDS-PAGE with silver staining. […]

CC[C@@H](C)[C@@H](NC(=O)[C@@H](Cc1c[nH]cn1)NC(=O)[C@@H](CCC(=O)O)NC(=O)[C@@H](CCC(N)=O)NC(=O)[C@@H](Cc1c[nH]c2ccccc12)NC(=O)[C@@H](Cc1ccc(O)cc1)NC(=O)[C@H](NC(=O)[C@@H](CCC(=O)O)NC(=O)[C@@H](Cc1c[nH]cn1)NC(=O)[C@H](NC(=O)[C@H]1CCCN1C(=O)[C@@H](CC(C)C)NC(=O)[C@H](N)CCCNC(=N)N)[C@H](C)O)[C@H](C)O)C(=O)N[C@H](Cc1c[nH]c2ccccc12)C(=O)N[C@H](Cc1c[nH]cn1)C(=O)N[C@H](C)C(=O)N[C@H](CCCNC(=N)N)C(=O)N[C@H](CCCNC(=N)N)C(=O)N[C@H](CCCNC(=N)N)C(=O)N[C@H](CCCNC(=N)N)C(=O)N[C@H](CCCNC(=N)N)C(N)=O [SVD-1a] (H-[dR][dL][dP][dT][dH][dE][dT][dY][dW][dQ][dE][dH][dI][dW][dH][dA][dR][dR][dR][dR][dR]-NH2)
α-syn fraction in retentate / eluate ([1]; increasing SVD-1a, 100 kDa MWCO, ELISA): concentration-dependent decrease of the α-syn fraction in the retentate—corresponding to small α-syn PFF—and an increase in the eluate | α-syn distribution vs monomer control ([1]; 1000 nM SVD-1a): shows the same distribution as the monomer control | aggregate band in retentate / shift to flow-through [2]: a progressive shift of α-syn from the retentate to the flow-through is observed; also recorded: the aggregate band intensity was substantially diminished
